Measurements: article PMC6356680, “Clerodane Diterpenes from the Marine Sponge Raspailia bouryesnaultae Collected in South Brazil” (Marine Drugs, 2019)
Where two headings read alike, the source gives them in different places.

Tests used:
in vitro [1] = type: cell-based; conditions: African green monkey (Vero) and human (A549), Vero cells (CC50) and A549 cells (IC50); CC50 Vero / IC50 A549; read-out: SI (selective index = CC50/IC50)
Method: (§1) Non-small cells of human lung cancer cells (A549; ATCC: CCL 195) and African Green monkey kidney fibroblasts (Vero; ATCC: CCL81) were grown in Eagle’s minimum essential medium (MEM; Cultilab, Campinas, Brazil) supplemented with 1% glutamine (Gibco, Carlsbad, CA, USA) and 10% fetal bovine serum (FBS; Gibco, Carlsbad, CA, USA), and maintained at 37 °C and 5% CO2 in a humidified atmosphere. The antiproliferative screening was performed by sulforhodamine B assay (SRB). In summary, A549 cells were seeded into 96-well plates (2.5 × 10^4 cells per well) and exposed to different concentrations of compounds 1–6 for 48 h. Paclitaxel (PAC, Sigma-Aldrich, St. Louis, MO, USA) was used as a positive control. After incubation, 10% trichloroacetic acid (TCA) was added to each well to fix the cells, and then the cells were washed and stained with SRB. […] The ratio between CC50 and IC50 values was calculated to obtain the selectivity index (SI) of each sample.

[2] = system: non-small cells of human lung cancer (A549); test: in vitro; type: cell-based; conditions: 48 h of treatment, sulforhodamine B assay, mean of three independent experiments, read-out: IC50 A549 Cell Line (Confidence Interval 95%)
Method: as §1

in vitro [3] = type: cell-based; conditions: African green monkey
Method: as §1
(§2) Firstly, the cytotoxicity of compounds 1–6 was determined by SRB assay as described above. HSV-1 (KOS and 29R strains, which are sensitive and resistant to acyclovir, respectively, Faculty of Pharmacy, University of Rennes I, Rennes, France) were propagated in the permissive Vero cells. Viral stocks were titrated as based on plaque-forming units (PFU), counted by plaque assay as previously described, and stored at −80 °C until used. To perform the anti-HSV-1 screening, the viral plaque number reduction assay was used as described previously by Boff et al.. Briefly, confluent Vero cell monolayers (2.5 × 10^5 cells per well) were infected with approximately 100 PFU of each virus strain for 1 h at 37 °C. Treatments were performed by adding non-cytotoxic concentrations of the compounds after viral infection (post-infection treatment). Cells were then washed with phosphate-buffered saline (PBS) and overlaid with MEM containing 1.5% carboxymethylcellulose (CMC; Sigma-Aldrich) in the presence or absence of different concentrations of the compounds and incubated for 48 h. Cells were fixed and stained with naphthol blue-black (Sigma-Aldrich), and viral plaques were counted by using a stereomicroscope. The results were presented as percentages of viral inhibition or by IC50 values, which are defined as the concentration of each sample that inhibited viral plaque formation by 50% (IC50) when compared to untreated controls. The ratio between CC50 and IC50 values was calculated to obtain the selectivity index (SI) of each sample. Acyclovir (ACV, Sigma-Aldrich) was used as a positive control for HSV-1 (KOS strain) and as a negative control for HSV-1 (29-R strain) replication.

HSV-1 (KOS strain) = test: Viral plaque number reduction assay, HSV-1 KOS strain; type: cell-based, Herpes Simplex Virus type 1; conditions: for IC50: read-out: IC50 (KOS Strain)
Method: as §2

HSV-1 (29R strain) = test: Viral plaque number reduction assay, HSV-1 29R strain; type: cell-based, Herpes Simplex Virus type 1; conditions: for inhibition at 100 µg/mL: tested concentration 100 µg/mL
Method: as §2

Vero cell line = test: in vitro; type: cell-based; conditions: African green monkey, 48 h
Method: as §1, §2

[4] = Human alphaherpesvirus 1, 48 h, tested concentration 100 µg/mL, 48 h, post-infection treatment, read-out: % HSV-1 Inhibition ± SD, KOS Strain
[5] = Human alphaherpesvirus 1, 48 h, acyclovir-resistant strain, read-out: % HSV-1 Inhibition ± SD, 29R Strain

SMILES | selectivity ratio at 48 h (in vitro [1]) | IC50 [2] [µM] | IC50 ([2]; Homo sapiens, A549, 48 h) [µM] | CC50 at 48 h (in vitro [3]) [µM] | IC50 (HSV-1 (KOS strain); Human alphaherpesvirus 1, 48 h) [µM] | inhibition at 50 µg/mL (HSV-1 (KOS strain); Human alphaherpesvirus 1, 48 h, tested concentration 50 µg/mL, 48 h, post-infection treatment, read-out: % HSV-1 Inhibition ± SD, KOS Strain) [%] | % HSV-1 Inhibition ± SD, KOS Strain (HSV-1 (KOS strain); tested concentration 50 µg/mL, 48 h, post-infection treatment) [%] | inhibition at 50 µg/mL (HSV-1 (29R strain); Human alphaherpesvirus 1, 48 h, tested concentration 50 µg/mL, acyclovir-resistant strain, read-out: % HSV-1 Inhibition ± SD, 29R Strain) [%] | inhibition at 100 µg/mL (HSV-1 (KOS strain); [4]) [%] | inhibition at 100 µg/mL (HSV-1 (29R strain); [5]) [%] | inhibition at 25 µg/mL (HSV-1 (KOS strain); Human alphaherpesvirus 1, 48 h, tested concentration 25 µg/mL, 48 h, post-infection treatment, read-out: % HSV-1 Inhibition ± SD, KOS Strain) [%] | inhibition at 25 µg/mL (HSV-1 (29R strain); Human alphaherpesvirus 1, 48 h, tested concentration 25 µg/mL, acyclovir-resistant strain, read-out: % HSV-1 Inhibition ± SD, 29R Strain) [%] | CC50 (Vero cell line) [µM] | inhibition at 100 µg/mL (HSV-1 (KOS strain); Human alphaherpesvirus 1, 48 h, read-out: % HSV-1 Inhibition ± SD, KOS Strain, tested concentration 100 µg/mL, 48 h, post-infection treatment) [%] | % HSV-1 Inhibition ± SD, KOS Strain (HSV-1 (KOS strain); tested concentration 100 µg/mL, 48 h, post-infection treatment) [%] | IC50 (HSV-1 (29R strain); Human alphaherpesvirus 1, 48 h, concentration ± SD that inhibited 50% of viral replication, unit inferred) [µM]
COC(=O)[C@@]12C(C)=CCC[C@@H]1[C@@](C)(CCc1ccoc1)[C@@H](C)C[C@H]2O [Compound 4, kerlinic acid methyl ester] | 4.77 | 20.6 | < 25 | 98.4 | 52.4 ± 4.78 | 50 | 50.23 ± 8.24 | 14.4 ± 5.46 |  |  |  |  |  |  |  | 
CC1=CCC[C@H]2C1(C(=O)O)[C@H](O)C[C@H](C)[C@]2(C)CCc1ccoc1 (stereo partly drawn) [Compound 3, kerlinic acid] | 2.74 |  | 66.2 | 182 |  |  |  |  | 24.4 ± 4.04 | 32 ± 6.12 |  |  |  |  |  | 
CC1=CCC[C@@H]2[C@@](C)(CCc3ccoc3)[C@@H](C)CC[C@]12C [Compound 5, annonene] | > 1.74 |  | 144 | > 250 |  |  |  |  | 15.2 ± 4.65 | 30.9 ± 9.07 |  |  |  |  |  | 
CC1=CCC[C@@H]2[C@@](C)(CCc3ccoc3)[C@@H](C)C[C@@H](O)[C@]12C [Compound 6, 6-hydroxyannonene] | 1.66 | 24.5 | < 25 | 40.8 |  |  |  |  |  |  | 0 | 0 |  |  |  | 
C[C@H]1C[C@@H](O)[C@]23C(=CCC[C@@H]2[C@@]1(C)CCc1ccoc1)CO[C@H]3O [Compound 1, raspailol] | 6.14 | 24.1 | < 25 | 148 |  |  |  |  | 34.6 ± 7.36 | 0 |  |  |  |  |  | 
C=C1C(C)=CCC[C@@H]1[C@@](C)(CCc1ccoc1)[C@@H](C)CC(=O)OC [Compound 2, raspadiene] | > 2.49 |  | 100 | > 250 | 81.4 ± 9.82 |  |  |  |  | 74 |  |  | > 250 | 83 | 83.41 ± 16.12 | 74.9 ± 7.3
